SMILES strings stand for the structures.

The target in this assay is T1, STAT6 (Homo sapiens, UniProt P42226).
T1 construct: stably transfected HaCaT keratinocyte cell line, which expresses NanoLuc luciferase reporter gene under the transcriptional control of the STAT6 responsive promoter; endogenous in cells; host or cells: HaCaT keratinocyte reporter cell line (stably transfected with a NanoLuc reporter)
T1 sequence (P42226 1-847): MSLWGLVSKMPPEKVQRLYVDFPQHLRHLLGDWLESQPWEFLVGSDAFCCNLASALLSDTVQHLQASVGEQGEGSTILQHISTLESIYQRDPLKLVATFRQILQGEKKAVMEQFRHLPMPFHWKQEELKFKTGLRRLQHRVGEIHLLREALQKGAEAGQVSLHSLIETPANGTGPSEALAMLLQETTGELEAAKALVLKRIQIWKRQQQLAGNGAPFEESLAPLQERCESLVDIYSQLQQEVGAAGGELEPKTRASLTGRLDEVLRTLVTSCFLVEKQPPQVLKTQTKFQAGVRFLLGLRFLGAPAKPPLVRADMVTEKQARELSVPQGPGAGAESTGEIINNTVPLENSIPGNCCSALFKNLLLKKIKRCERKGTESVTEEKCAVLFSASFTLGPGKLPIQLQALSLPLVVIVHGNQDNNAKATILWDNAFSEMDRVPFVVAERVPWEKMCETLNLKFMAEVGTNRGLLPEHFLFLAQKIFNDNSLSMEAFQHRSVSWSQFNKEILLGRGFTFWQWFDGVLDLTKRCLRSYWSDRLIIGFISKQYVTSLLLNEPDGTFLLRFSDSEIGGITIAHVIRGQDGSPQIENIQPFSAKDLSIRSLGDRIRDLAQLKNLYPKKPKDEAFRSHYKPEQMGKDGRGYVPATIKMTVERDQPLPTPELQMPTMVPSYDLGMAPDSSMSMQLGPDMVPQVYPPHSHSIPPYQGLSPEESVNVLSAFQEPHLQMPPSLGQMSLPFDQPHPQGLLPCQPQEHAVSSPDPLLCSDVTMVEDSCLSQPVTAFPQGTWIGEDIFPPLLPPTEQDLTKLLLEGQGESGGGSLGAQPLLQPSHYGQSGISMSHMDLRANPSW
Put plainly: STAT6 Reporter Luciferase Assay (IL-13 stimulated HaCaT keratinocyte NanoLuc reporter cells). In kind it is cell-based. The settings on record: IL-13 stimulated HaCaT STAT6 NanoLuc reporter cells; read-out: Reporter EC50. The essentials: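 HaCaT IL-13Ra2-promoter NanoLuc reporter; cpd 2 h 37 °C in DMEM/2% HI FBS; IL-13 0.12 nM final, 4 h; Nano-Glo luminescence.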
With `CC(C)n1nc(C(=O)NCc2ccc(NC(=O)N(C)C)cc2)c2c1[C@@H](C)CN(c1ccc(C(=O)N(C)C[C@H]3[C@@H]4CN(C)C[C@@H]43)cc1)C2` [Example 661, (S)-N-(4-(3,3-dimethylureido)benzyl)-1-isopropyl-7-methyl-5-(4-(methyl(((1R,5S,6r)-3-methyl-3-azabicyclo[3.1.0]hexan-6-yl)methyl)carbamoyl)phenyl)-4,5,6,7-tetrahydro-1H-pyrazolo[4,3-c]pyridine-3-carboxamide], the 50% effective concentration (EC50) turned out to be 5 nM.

For `CC(C)n1nc(C(=O)NCc2ccc(NC(=O)N(C)C)cc2)c2c1[C@@H](C)CN(c1ccc(C(=O)N(C)CC3CCN(Cc4ccccc4)CC3)cc1)C2` [Example 662, (S)-5-(4-(((1-benzylpiperidin-4-yl)methyl)(methyl)carbamoyl)phenyl)-N-(4-(3,3-dimethylureido)benzyl)-1-isopropyl-7-methyl-4,5,6,7-tetrahydro-1H-pyrazolo[4,3-c]pyridine-3-carboxamide], the 50% effective concentration (EC50) worked out at 3 nM.

On to `CC(C)n1nc(C(=O)NCc2ccc(NC(=O)N3CCN(CCC(=O)O)CC3)c(F)c2)c2c1[C@@H](C)CN(c1ccc(C(=O)N(C)C)cc1)C2` [Example 669, (S)-3-(4-((4-((5-(4-(dimethylcarbamoyl)phenyl)-1-isopropyl-7-methyl-4,5,6,7-tetrahydro-1H-pyrazolo[4,3-c]pyridine-3-carboxamido)methyl)-2-fluorophenyl)carbamoyl)piperazin-1-yl)propanoic acid], for which the concentration giving a half-maximal response (EC50) was determined as 201 nM.

Turning to `CC(C)n1nc(C(=O)NCc2ccc(NC(=O)N3CCN(C)CC3)cc2)c2c1[C@@H](C)CN(c1ccc(-n3ccnn3)cc1)C2` [Example 674, (S)-5-(4-(1H-1,2,3-triazol-1-yl)phenyl)-1-isopropyl-7-methyl-N-(4-(4-methylpiperazine-1-carboxamido)benzyl)-4,5,6,7-tetrahydro-1H-pyrazolo[4,3-c]pyridine-3-carboxamide], the concentration for a half-maximal effect (EC50) worked out at 0.2 nM.

With `CC(C)n1nc(C(=O)NCc2ccc(NC(=O)N(C)C)cc2)c2c1[C@@H](C)CN(c1ccc(C(=O)N3CCN4CCC[C@@H]4C3)cc1)C2` [Example 675, (S)-N-(4-(3,3-dimethylureido)benzyl)-1-isopropyl-7-methyl-5-(4-((R)-octahydropyrrolo[1,2-a]pyrazine-2-carbonyl)phenyl)-4,5,6,7-tetrahydro-1H-pyrazolo[4,3-c]pyridine-3-carboxamide], the concentration giving a half-maximal response (EC50) worked out at 34 nM.

As for `CC(C)n1nc(C(=O)NCc2ccc(NC(=O)N(C)C)cc2)c2c1[C@@H](C)CN(c1ccc(C(=O)N3Cc4cccnc4C3)cc1)C2` [Example 676, (S)-5-(4-(6,7-dihydro-5H-pyrrolo[3,4-b]pyridine-6-carbonyl)phenyl)-N-(4-(3,3-dimethylureido)benzyl)-1-isopropyl-7-methyl-4,5,6,7-tetrahydro-1H-pyrazolo[4,3-c]pyridine-3-carboxamide], the EC50 is 0.3 nM.

For the compound `CC(C)n1nc(C(=O)NCc2ccc(NC(=O)N3CC[C@@H](N(C)C)C3)c(F)c2)c2c1[C@@H](C)CN(c1ccc(C(=O)N(C)C)cc1)C2` [Example 678, (S)-N-(4-((R)-3-(dimethylamino)pyrrolidine-1-carboxamido)-3-fluorobenzyl)-5-(4-(dimethylcarbamoyl)phenyl)-1-isopropyl-7-methyl-4,5,6,7-tetrahydro-1H-pyrazolo[4,3-c]pyridine-3-carboxamide], the EC50 came out at 3 nM.

Regarding `CC(C)n1nc(C(=O)NCc2ccc(NC(=O)N3CCC(C)(N(C)C)C3)c(F)c2)c2c1[C@@H](C)CN(c1ccc(C(=O)N(C)C)cc1)C2` (stereo partly drawn) [Example 679, (7S)-N-(4-(3-(dimethylamino)-3-methylpyrrolidine-1-carboxamido)-3-fluorobenzyl)-5-(4-(dimethylcarbamoyl)phenyl)-1-isopropyl-7-methyl-4,5,6,7-tetrahydro-1H-pyrazolo[4,3-c]pyridine-3-carboxamide], the EC50 stood at 3 nM.

Turning to `CC(C)n1nc(C(=O)NCc2ccc(NC(=O)N3CCN(C)[C@@H](C)C3)c(F)c2)c2c1[C@@H](C)CN(c1ccc(C(=O)N(C)C)cc1)C2` [Example 680, (S)-5-(4-(dimethylcarbamoyl)phenyl)-N-(4-((S)-3,4-dimethylpiperazine-1-carboxamido)-3-fluorobenzyl)-1-isopropyl-7-methyl-4,5,6,7-tetrahydro-1H-pyrazolo[4,3-c]pyridine-3-carboxamide], the EC50 was found to be 2 nM.

On to `CC(C)n1nc(C(=O)NCc2ccc(NC(=O)N3CC[C@@H](CN(C)C)C3)c(F)c2)c2c1[C@@H](C)CN(c1ccc(C(=O)N(C)C)cc1)C2` [Example 681, (S)-N-(4-((S)-3-((dimethylamino)methyl)pyrrolidine-1-carboxamido)-3-fluorobenzyl)-5-(4-(dimethylcarbamoyl)phenyl)-1-isopropyl-7-methyl-4,5,6,7-tetrahydro-1H-pyrazolo[4,3-c]pyridine-3-carboxamide], for which the EC50 came to 3 nM.

Consider `CC(C)n1nc(C(=O)NCc2ccc(NC(=O)N3CCC[C@@H](N(C)C)C3)c(F)c2)c2c1[C@@H](C)CN(c1ccc(C(=O)N(C)C)cc1)C2` [Example 682, (S)-N-(4-((R)-3-(dimethylamino)piperidine-1-carboxamido)-3-fluorobenzyl)-5-(4-(dimethylcarbamoyl)phenyl)-1-isopropyl-7-methyl-4,5,6,7-tetrahydro-1H-pyrazolo[4,3-c]pyridine-3-carboxamide], for which the EC50 came out at 4 nM.

With `CC(C)n1nc(C(=O)NCc2ccc(NC(=O)N3CCC[C@H](N(C)C)C3)c(F)c2)c2c1[C@@H](C)CN(c1ccc(C(=O)N(C)C)cc1)C2` [Example 683, (S)-N-(4-((S)-3-(dimethylamino)piperidine-1-carboxamido)-3-fluorobenzyl)-5-(4-(dimethylcarbamoyl)phenyl)-1-isopropyl-7-methyl-4,5,6,7-tetrahydro-1H-pyrazolo[4,3-c]pyridine-3-carboxamide], the concentration for a half-maximal effect (EC50) turned out to be 3 nM.

Consider `CC(C)n1nc(C(=O)NCc2ccc(NC(=O)N3CC[C@H](CN(C)C)C3)c(F)c2)c2c1[C@@H](C)CN(c1ccc(C(=O)N(C)C)cc1)C2` [Example 684, (S)-N-(4-((R)-3-((dimethylamino)methyl)pyrrolidine-1-carboxamido)-3-fluorobenzyl)-5-(4-(dimethylcarbamoyl)phenyl)-1-isopropyl-7-methyl-4,5,6,7-tetrahydro-1H-pyrazolo[4,3-c]pyridine-3-carboxamide], for which the EC50 was found to be 2 nM.

Regarding `CC(C)n1nc(C(=O)NCc2ccc(NC(=O)NC3(C)CNC3)c(F)c2)c2c1[C@@H](C)CN(c1ccc(C(=O)N(C)C)cc1)C2` [Example 685, (S)-5-(4-(dimethylcarbamoyl)phenyl)-N-(3-fluoro-4-(3-(3-methylazetidin-3-yl)ureido)benzyl)-1-isopropyl-7-methyl-4,5,6,7-tetrahydro-1H-pyrazolo[4,3-c]pyridine-3-carboxamide], the EC50 came out at 2 nM.

Turning to `CC(C)n1nc(C(=O)NCc2ccc(NC(=O)N3CCN(C)[C@H](C)C3)c(F)c2)c2c1[C@@H](C)CN(c1ccc(C(=O)N(C)C)cc1)C2` [Example 686, (S)-5-(4-(dimethylcarbamoyl)phenyl)-N-(4-((R)-3,4-dimethylpiperazine-1-carboxamido)-3-fluorobenzyl)-1-isopropyl-7-methyl-4,5,6,7-tetrahydro-1H-pyrazolo[4,3-c]pyridine-3-carboxamide], the EC50 worked out at 1 nM.

Consider `CC(C)n1nc(C(=O)NCc2ccc(NC(=O)N3CCN4CCCC[C@@H]4C3)c(F)c2)c2c1[C@@H](C)CN(c1ccc(C(=O)N(C)C)cc1)C2` [Example 687, (R)-N-(4-(((S)-5-(4-(dimethylcarbamoyl)phenyl)-1-isopropyl-7-methyl-4,5,6,7-tetrahydro-1H-pyrazolo[4,3-c]pyridine-3-carboxamido)methyl)-2-fluorophenyl)octahydro-2H-pyrido[1,2-a]lpyrazine-2-carboxamide], for which the EC50 came to 1 nM.

Turning to `COC[C@H]1CN(C(=O)Nc2ccc(CNC(=O)c3nn(C(C)C)c4c3CN(c3ccc(C(=O)N(C)C)cn3)C[C@@H]4C)cc2F)CCN1` [Example 688, (S)-5-(5-(dimethylcarbamoyl)pyridin-2-yl)-N-(3-fluoro-4-((R)-3-(methoxymethyl)piperazine-1-carboxamido)benzyl)-1-isopropyl-7-methyl-4,5,6,7-tetrahydro-1H-pyrazolo[4,3-c]pyridine-3-carboxamide], the EC50 was 1 nM.

What is called EC50 is the midpoint of the concentration-response curve.

These data come from patent publication US20250320213A1, “Nitrogen-Containing Heterocyclic Compounds” (Pfizer Inc., priority 2024, published 2025).
